Source: patent US6552069B1, “3-methyl-chroman and -thiochroman derivatives” (Chugai Seiyaku Kabushiki Kaisha, priority 1999, dated 2003)

System: estradiol-induced increase in uterine weight
Assay: Anti-estrogenic activity (oral administration) in ovariectomized mice administered with 17β-estradiol
Format: in vivo
Conditions: 10 mg/kg p.o. once a day for 3 days, suspended in 5% arabic gum, ovariectomized ICR mice given 17β-estradiol-benzoate 0.1 μg/mouse s.c. for 3 days, uteri weighed 24 hours after last administration
Description: Test compounds were assayed for their oral anti-estrogenic activity in the following manner. In this experiment, the compounds prepared in Examples mentioned above were used as test compounds. As control compounds, the following three were used: a compound described in Example 7 of WO98/25916; ZM; and a compound corresponding to general formula (1) of the present invention, provided that R2 was a C2 perfluoroalkyl group (perfluoroethyl), i.e., 10-[(3RS,4RS)-7-hydroxy-3-(4-hydroxyphenyl)-3-methylthiochroman-4-yl]-2-(4,4,5,5,5-pentafluoropentyl)decanoic acid, which had been synthesized according to Reaction Schemes 1 to 7 mentioned above.
In this experiment, each of the test and control compounds was suspended in 5% arabic gum solution and orally administered for 3 days on a once-a-day basis. After 24 hours from the last administration, the test animals were sacrificed and the uteri were removed and weighed.

Question: How did the inhibition in vivo at 10 mg/kg turn out when `C[C@@]1(c2ccc(O)cc2)COc2cc(O)ccc2[C@@H]1CCCCCCCCC(CCC(F)(F)C(F)(F)C(F)(F)C(F)(F)F)C(=O)O` (mixture of isomers) [Example 13, 10-[(3RS,4RS)-7-hydroxy-3-(4-hydroxyphenyl)-3-methylchroman-4-yl]-2-(3,3,4,4,5,5,6,6,6-nonafluorohexyl)decanoic acid] was run?
Answer: 84%

Question: How did the inhibition in vivo at 10 mg/kg turn out when `CC1(c2ccc(O)cc2)COc2cc(O)ccc2C1CCCCCCCCCC(CCC(F)(F)C(F)(F)C(F)(F)C(F)(F)F)C(=O)O` (single isomer, unassigned) [Example 24, Peak 1, 11-[7-hydroxy-3-(4-hydroxyphenyl)-3-methylchroman-4-yl]-2-(3,3,4,4,5,5,6,6,6-nonafluorohexyl)undecanoic acid] was run?
Answer: 85%

Question: Which inhibition in vivo at 10 mg/kg does the source give for `C[C@@]1(c2ccc(O)cc2)COc2cc(O)ccc2[C@@H]1CCCCCCCCC(CCCC(F)(F)C(F)(F)C(F)(F)C(F)(F)F)C(=O)O` (mixture of isomers) [Example 15, 10-[(3RS,4RS)-7-hydroxy-3-(4-hydroxyphenyl)-3-methylchroman-4-yl]-2-(4,4,5,5,6,6,7,7,7-nonafluoroheptyl)decanoic acid] here?
Answer: 92%

Question: For `C[C@@]1(c2ccc(O)cc2)COc2cc(O)ccc2[C@@H]1CCCCCCCCCC(CCCC(F)(F)C(F)(F)C(F)(F)C(F)(F)F)C(=O)O` (mixture of isomers) [Example 16, 11-[(3RS,4RS)-7-hydroxy-3-(4-hydroxyphenyl)-3-methylchroman-4-yl]-2-(4,4,5,5,6,6,7,7,7-nonafluoroheptyl)undecanoic acid], which inhibition in vivo at 10 mg/kg is on record?
Answer: 91%

Question: For `C[C@@]1(c2ccc(O)cc2)CSc2cc(O)ccc2[C@@H]1CCCCCCCCCC(CCC(F)(F)C(F)(F)C(F)(F)C(F)(F)F)C(=O)O` (mixture of isomers) [Example 11, 11-[(3RS,4RS)-7-hydroxy-3-(4-hydroxyphenyl)-3-methylthiochroman-4-yl]-2-(3,3,4,4,5,5,6,6,6-nonafluorohexyl)undecanoic acid], which inhibition in vivo at 10 mg/kg is on record?
Answer: 85%

Question: `C[C@@]1(c2ccc(O)cc2)COc2cc(O)ccc2[C@@H]1CCCCCCCCCC(CCC(F)(F)C(F)(F)C(F)(F)C(F)(F)F)C(=O)O` (mixture of isomers) [Example 14, 11-[(3RS,4RS)-7-hydroxy-3-(4-hydroxyphenyl)-3-methylchroman-4-yl]-2-(3,3,4,4,5,5,6,6,6-nonafluorohexyl)undecanoic acid] was tested. Which inhibition in vivo at 10 mg/kg did it give?
Answer: 88%

Question: With `C[C@@]1(c2ccc(O)cc2)CSc2cc(O)ccc2[C@@H]1CCCCCCCCCC(CCCC(F)(F)C(F)(F)C(F)(F)C(F)(F)F)C(=O)O` (mixture of isomers) [Example 12, 11-[(3RS,4RS)-7-hydroxy-3-(4-hydroxyphenyl)-3-methylthiochroman-4-yl]-2-(4,4,5,5,6,6,7,7,7-nonafluoroheptyl)undecanoic acid] as the compound, how does the inhibition in vivo at 10 mg/kg read?
Answer: 86%

Question: With `C[C@@]1(c2ccc(O)cc2)CSc2cc(O)ccc2[C@@H]1CCCCCCCCC(CCCC(F)(F)C(F)(F)C(F)(F)C(F)(F)F)C(=O)O` (mixture of isomers) [Example 9, 10-[(3RS,4RS)-7-hydroxy-3-(4-hydroxyphenyl)-3-methylthiochroman-4-yl]-2-(4,4,5,5,6,6,7,7,7-nonafluoroheptyl)decanoic acid] as the compound, how does the inhibition in vivo at 10 mg/kg read?
Answer: 93%

Question: For `C[C@@]1(c2ccc(O)cc2)CSc2cc(O)ccc2[C@@H]1CCCCCCCCC(CCC(F)(F)C(F)(F)C(F)(F)C(F)(F)F)C(=O)O` (single isomer, unassigned) [Example 21, Peak 1], which inhibition in vivo at 10 mg/kg is on record?
Answer: 89%

Question: How did the inhibition in vivo at 10 mg/kg turn out when `C[C@@]1(c2ccc(O)cc2)CSc2cc(O)ccc2[C@@H]1CCCCCCCCC(CCCC(F)(F)C(F)(F)F)C(=O)O` (mixture of isomers) [10-[(3RS,4RS)-7-hydroxy-3-(4-hydroxyphenyl)-3-methylthiochroman-4-yl]-2-(4,4,5,5,5-pentafluoropentyl)decanoic acid, reference compound] was run?
Answer: 75%

Question: For `C[C@@]1(c2ccc(O)cc2)CSc2cc(O)ccc2[C@@H]1CCCCCCCCC(CCC(F)(F)C(F)(F)C(F)(F)C(F)(F)F)C(=O)O` (mixture of isomers) [Example 8, 10-[(3RS,4RS)-7-hydroxy-3-(4-hydroxyphenyl)-3-methylthiochroman-4-yl]-2-(3,3,4,4,5,5,6,6,6-nonafluorohexyl)decanoic acid], which inhibition in vivo at 10 mg/kg is on record?
Answer: 93%
